In the supplement of paper PMC6045584:
± gives the standard deviation of the averaged measurements.

Assays:
DASATINIB = compound: Cc1nc(Nc2ncc(C(=O)Nc3c(C)cccc3Cl)s2)cc(N2CCN(CCO)CC2)n1 [DASATINIB]; assay: surviving fraction relative to DMSO-only wells; higher = less growth inhibition; conditions: exposure time: 5 days
Procedure, shortened: (§1)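 Viability was scored with CellTiter-Glo luminescence and normalised to the median of DMSO-only wells as surviving fraction. Beforehand, log-phase tumour cell lines were seeded at 250–500 cells per well in 384-well plates, allowed 24 hours, and exposed continuously for five days to inhibitors at 0.5, 1, 5, 10, 50, 100, 500 and 1000 nM. Only lines whose three screens gave replicate Pearson r >0.7 and median Z' >0.3 were kept.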

XAV-939 = compound: Oc1nc(-c2ccc(C(F)(F)F)cc2)nc2c1CSCC2 [XAV-939]; assay: as above; conditions: exposure time: 5 days
Procedure, shortened: as §1

Row | Test System | surviving fraction (DASATINIB; 0.5 nM) | surviving fraction (DASATINIB; 1 nM) | surviving fraction (DASATINIB; 5 nM) | surviving fraction (DASATINIB; 10 nM) | surviving fraction (DASATINIB; 50 nM) | surviving fraction (DASATINIB; 100 nM) | surviving fraction (DASATINIB; 500 nM) | surviving fraction (DASATINIB; 1000 nM) | surviving fraction (XAV-939; 0.5 nM) | surviving fraction (XAV-939; 1 nM) | surviving fraction (XAV-939; 5 nM) | surviving fraction (XAV-939; 10 nM) | surviving fraction (XAV-939; 50 nM) | surviving fraction (XAV-939; 100 nM) | surviving fraction (XAV-939; 500 nM) | surviving fraction (XAV-939; 1000 nM)
1 | SCC36 HEADNECK | 0.788 ± 0.13 | 0.676 ± 0.033 | 0.705 ± 0.078 | 0.678 ± 0.1 | 0.385 ± 0.078 | 0.19 ± 0.032 | 0.12 ± 0.013 | 0.112 ± 0.011 | 1.07 ± 0.11 | 0.964 ± 0.16 | 1.19 ± 0.045 | 1.06 ± 0.082 | 1.11 ± 0.032 | 1.1 ± 0.077 | 0.825 ± 0.029 | 0.711 ± 0.022
2 | SCC47 HEADNECK | 0.961 ± 0.073 | 0.965 ± 0.067 | 0.971 ± 0.065 | 0.9 ± 0.039 | 0.698 ± 0.0083 | 0.38 ± 0.027 | 0.078 ± 0.011 | 0.0587 ± 0.0074 | 0.987 ± 0.14 | 1.14 ± 0.058 | 1.08 ± 0.036 | 1.16 ± 0.027 | 1.07 ± 0.047 | 1.11 ± 0.082 | 0.962 ± 0.05 | 0.966 ± 0.093
3 | SCC90 HEADNECK | 0.823 ± 0.081 | 0.868 ± 0.037 | 0.803 ± 0.071 | 0.85 ± 0.18 | 0.527 ± 0.05 | 0.542 ± 0.072 | 0.433 ± 0.095 | 0.468 ± 0.053 | 1.01 ± 0.1 | 1.11 ± 0.18 | 1.08 ± 0.077 | 1.13 ± 0.071 | 1.05 ± 0.03 | 1.05 ± 0.084 | 0.894 ± 0.032 | 0.918 ± 0.07
4 | SG27 HEADNECK | 0.939 ± 0.12 | 1.01 ± 0.035 | 0.889 ± 0.15 | 0.736 ± 0.013 | 0.531 ± 0.0053 | 0.42 ± 0.038 | 0.35 ± 0.059 | 0.369 ± 0.064 | 1.1 ± 0.076 | 0.993 ± 0.089 | 1 ± 0.058 | 1.02 ± 0.052 | 1.08 ± 0.049 | 0.966 ± 0.081 | 0.825 ± 0.062 | 0.802 ± 0.11
5 | SG28 HEADNECK | 0.749 ± 0.055 | 0.772 ± 0.04 | 0.687 ± 0.028 | 0.534 ± 0.087 | 0.439 ± 0.033 | 0.329 ± 0.018 | 0.213 ± 0.016 | 0.204 ± 0.032 | 1.01 ± 0.11 | 1.11 ± 0.095 | 0.981 ± 0.083 | 0.967 ± 0.11 | 1.02 ± 0.14 | 0.958 ± 0.07 | 0.912 ± 0.075 | 0.91 ± 0.058
6 | SG31 HEADNECK | 0.892 ± 0.091 | 0.878 ± 0.19 | 0.722 ± 0.013 | 0.649 ± 0.081 | 0.535 ± 0.02 | 0.44 ± 0.042 | 0.391 ± 0.045 | 0.373 ± 0.016 | 1.02 ± 0.12 | 1.13 ± 0.1 | 1.12 ± 0.28 | 1.02 ± 0.046 | 0.985 ± 0.021 | 0.853 ± 0.19 | 0.745 ± 0.055 | 0.747 ± 0.037
7 | SG32 HEADNECK | 0.606 ± 0.048 | 0.653 ± 0.14 | 0.564 ± 0.11 | 0.438 ± 0.06 | 0.395 ± 0.09 | 0.171 ± 0.037 | 0.155 ± 0.015 | 0.147 ± 0.022 | 0.996 ± 0.26 | 1.02 ± 0.092 | 1.66 ± 1.1 | 1.13 ± 0.1 | 1.02 ± 0.12 | 1.08 ± 0.13 | 0.721 ± 0.17 | 0.603 ± 0.034
8 | SG43 HEADNECK | 0.98 ± 0.19 | 1.02 ± 0.16 | 0.592 ± 0.2 | 0.581 ± 0.2 | 0.337 ± 0.078 | 0.273 ± 0.13 | 0.206 ± 0.023 | 0.177 ± 0.054 | 1.07 ± 0.11 | 1.03 ± 0.07 | 0.909 ± 0.17 | 0.806 ± 0.26 | 0.744 ± 0.04 | 0.878 ± 0.17 | 0.9 ± 0.068 | 0.761 ± 0.081
9 | SIHA CERVIX | 0.876 ± 0.016 | 0.806 ± 0.013 | 0.74 ± 0.026 | 0.742 ± 0.019 | 0.772 ± 0.046 | 0.648 ± 0.052 | 0.561 ± 0.0062 | 0.543 ± 0.027 | 1.02 ± 0.045 | 1.05 ± 0.067 | 1.05 ± 0.084 | 1.16 ± 0.13 | 1.1 ± 0.044 | 1.19 ± 0.025 | 1 ± 0.063 | 0.974 ± 0.046
10 | SJSA1 BONE | 1.23 ± 0.065 | 1.14 ± 0.044 | 1.16 ± 0.19 | 1.24 ± 0.1 | 0.0427 ± 0.0032 | 1.6 ± 0.093 | 1.7 ± 0.029 | 0.174 ± 0.019 | 1.1 ± 0.061 | 1.04 ± 0.053 | 1.06 ± 0.037 | 1.12 ± 0.055 | 1.16 ± 0.06 | 1.18 ± 0.037 | 1.07 ± 0.071 | 1.08 ± 0.014
11 | SKBR3 BREAST | 0.718 ± 0.024 | 0.802 ± 0.1 | 0.722 ± 0.097 | 0.822 ± 0.063 | 1.01 ± 0.093 | 1.1 ± 0.086 | 1.13 ± 0.12 | 0.942 ± 0.022 | 1.07 ± 0.17 | 0.943 ± 0.089 | 1.04 ± 0.16 | 0.898 ± 0.054 | 1.11 ± 0.065 | 1.02 ± 0.1 | 0.854 ± 0.14 | 0.772 ± 0.053
12 | SNU475 LIVER | 0.799 ± 0.0098 | 0.774 ± 0.018 | 0.602 ± 0.021 | 0.519 ± 0.036 | 0.469 ± 0.02 | 0.349 ± 0.021 | 0.242 ± 0.025 | 0.255 ± 0.032 | 0.936 ± 0.035 | 0.976 ± 0.033 | 0.891 ± 0.18 | 1.02 ± 0.018 | 0.952 ± 0.011 | 0.965 ± 0.033 | 0.713 ± 0.068 | 0.59 ± 0.027
13 | SUM44 BREAST | 0.88 ± 0.035 | 0.824 ± 0.085 | 0.941 ± 0.062 | 0.865 ± 0.13 | 1.14 ± 0.23 | 1.12 ± 0.15 | 1.09 ± 0.13 | 0.99 ± 0.055 | 1.02 ± 0.059 | 1.05 ± 0.051 | 1.05 ± 0.02 | 1.06 ± 0.044 | 1.08 ± 0.045 | 1.1 ± 0.025 | 1.07 ± 0.023 | 1.12 ± 0.06
14 | SUM149 BREAST | 0.774 ± 0.058 | 0.817 ± 0.082 | 0.607 ± 0.043 | 0.563 ± 0.036 | 0.292 ± 0.018 | 0.252 ± 0.011 | 0.177 ± 0.02 | 0.174 ± 0.018 | 1.02 ± 0.094 | 0.987 ± 0.05 | 0.971 ± 0.067 | 0.942 ± 0.034 | 0.854 ± 0.095 | 0.691 ± 0.037 | 0.432 ± 0.0091 | 0.328 ± 0.022
15 | SUM149.B1*.S BREAST | 0.905 ± 0.034 | 0.879 ± 0.036 | 0.811 ± 0.024 | 0.75 ± 0.047 | 0.5 ± 0.018 | 0.358 ± 0.0082 | 0.332 ± 0.0043 | 0.353 ± 0.032 | 0.968 ± 0.033 | 1.07 ± 0.059 | 1.04 ± 0.047 | 1.06 ± 0.082 | 0.996 ± 0.045 | 1.06 ± 0.033 | 1.01 ± 0.03 | 1 ± 0.026
16 | SUM159 BREAST | 0.948 ± 0.026 | 0.981 ± 0.011 | 0.955 ± 0.015 | 0.921 ± 0.022 | 0.907 ± 0.011 | 0.778 ± 0.048 | 0.59 ± 0.035 | 0.606 ± 0.055 | 1.17 ± 0.32 | 1.15 ± 0.19 | 1.14 ± 0.21 | 1.16 ± 0.22 | 1.12 ± 0.2 | 1.13 ± 0.18 | 1.09 ± 0.16 | 1.08 ± 0.11
